Key:
Format in all cases: in vivo
southern crabgrass [1] = experiment: Test Example 4: herbicidal effect test by treatment of leave and stem in dry field farming (seven days after seeding); conditions: 120 g/10a active ingredient; emulsion sprayed seven days after seeding; evaluated 14 days after treatment
Procedure, shortened: (§1)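 Duplicate pots were scored 14 days post-spray by dry weight, herbicidal rate = {1 − treated/untreated average dry weight} × 100. The water-diluted emulsion, equivalent to 120 g active ingredient per 10 ares in 100 L, was applied seven days after sowing 20 seeds each into the upper 1 cm of alluvial soil.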

Amaranthus viridis [2] = experiment: as above; conditions: 120 g/10a active ingredient; emulsion sprayed seven days after seeding; evaluated 14 days after treatment
Procedure, shortened: as §1

Echinochloa crus-galli [3] = experiment: as above; conditions: 120 g/10a active ingredient; emulsion sprayed seven days after seeding; evaluated 14 days after treatment
Procedure, shortened: as §1

Chenopodium album [4] = experiment: as above; conditions: 120 g/10a active ingredient; emulsion sprayed seven days after seeding; evaluated 14 days after treatment
Procedure, shortened: as §1

Echinochloa crus-galli [5] = experiment: Test Example 2: herbicidal effect test by treatment during growing period in paddy rice cultivation (seven days after seeding); conditions: 120 g/10a active ingredient, assessed 14 days after treatment, dry weight vs untreated area
Procedure, shortened: (§2)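 Herbicidal rate (%) = {1 − treated/untreated mean plant dry weight} × 100, assessed in duplicate 14 days post-treatment. Emulsion formulations were diluted in water and dropped onto flooded (about 3 cm) paddy pots 7 days after seeding, giving 120 g a.i. per 10 ares. Plants were grown in a glass greenhouse.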

Scirpus juncoides [6] = experiment: as above; conditions: 120 g/10a active ingredient, assessed 14 days after treatment, dry weight vs untreated area
Procedure, shortened: as §2

[7] = system: broad leaf weeds (Lindernia pyxidaria and Monochoria vaginalis); experiment: as above; conditions: 120 g/10a active ingredient, assessed 14 days after treatment, dry weight vs untreated area
Procedure, shortened: as §2

southern crabgrass [8] = experiment: Test Example 3: herbicidal effect test by treatment of dry field farming soil (one day after seeding); conditions: 120 g/10a active ingredient, evaluated 14 days after treatment
Procedure, shortened: (§3)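 Herbicidal rate (%) equals 1 minus treated/untreated mean plant dry weight, times 100, taken 14 days after treatment in duplicate pots. Emulsion diluted in water was applied at 100 L per 10 ares (120 g a.i. per 10 ares) one day after sowing 20 seeds per species into the top 1 cm of alluvial soil.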

Amaranthus viridis [9] = experiment: as above; conditions: 120 g/10a active ingredient, evaluated 14 days after treatment
Procedure, shortened: as §3

Echinochloa crus-galli [10] = experiment: as above; conditions: 120 g/10a active ingredient, evaluated 14 days after treatment
Procedure, shortened: as §3

Chenopodium album [11] = experiment: as above; conditions: 120 g/10a active ingredient, evaluated 14 days after treatment
Procedure, shortened: as §3

Echinochloa crus-galli [12] = experiment: Test Example 1: herbicidal effect test by treatment of rice paddy soil (immediately after seeding); conditions: 120 g/10a active ingredient, dry weight vs untreated area, 14 days after treatment
Procedure, shortened: (§4)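 Puddled, fertilized (N:P:K=17:17:17) paddy soil in Wagner pots; seeds sown 0–1 cm deep, flooded to about 3 cm. Emulsifiable formulations diluted in water and dropped into the water immediately after seeding at 120 g active ingredient per 10 ares; greenhouse. Herbicidal rate from dry weight vs untreated at 14 days.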

Scirpus juncoides [13] = experiment: as above; conditions: 120 g/10a active ingredient, dry weight vs untreated area, 14 days after treatment
Procedure, shortened: as §4

[14] = system: broad leaf weeds (Lindernia pyxidaria and Monochoria vaginalis); experiment: as above; conditions: 120 g/10a active ingredient, dry weight vs untreated area, 14 days after treatment
Procedure, shortened: as §4

SMILES | herbicidal effect (herbicidal rate), southern crabgrass (southern crabgrass [1]) | herbicidal effect (herbicidal rate), Amaranthus viridis (Amaranthus viridis [2]) | herbicidal effect (herbicidal rate), Echinochloa crus-galli (Echinochloa crus-galli [3]) | herbicidal effect (herbicidal rate), Chenopodium album (Chenopodium album [4]) | Herbicidal rate (%) Echinochloa crus-galli (Echinochloa crus-galli [5]) | Herbicidal rate (%) Scirpus juncoides (Scirpus juncoides [6]) | Herbicidal rate (%) Lindernia pyxidaria [7] | Herbicidal rate (%) Monochoria vaginalis [7] | herbicidal rate, southern crabgrass (southern crabgrass [8]) | herbicidal rate, Amaranthus viridis (Amaranthus viridis [9]) | herbicidal rate, Echinochloa crus-galli (Echinochloa crus-galli [10]) | herbicidal rate, Chenopodium album (Chenopodium album [11]) | Herbicidal rate (%) Echinochloa crus-galli (Echinochloa crus-galli [12]) | Herbicidal rate (%) Scirpus juncoides (Scirpus juncoides [13]) | Herbicidal rate (%) Lindernia pyxidaria [14] | Herbicidal rate (%) Monochoria vaginalis [14]
CCC(C)n1oc(=O)c(Cc2ccccc2N(C(=O)C2CCCO2)S(=O)(=O)C(F)(F)F)c1C (stereo not shown) [Compound 1-522] | 90% | 40% | 90% | 40% | 90% | 90% | 90% | 90% | 90% | 90% | 90% | 90% | 90% | 90% | 90% | 90%
Cc1c(Cc2ccccc2NS(=O)(=O)C(F)(F)F)c(=O)on1CC(C)(C)C [Compound 1-106] | 90% | 40% | 90% | 40% | 90% | 90% | 90% | 90% | 90% | 90% | 90% | 90% | 90% | 90% | 90% | 90%
C=CCn1oc(=O)c(Cc2ccccc2N(S(=O)(=O)C(F)(F)F)S(=O)(=O)C(F)(F)F)c1C [Compound 1-985] | 60% | 60% | 90% | 60% | 90% | 60% | 60% | 60% | 70% | 80% | 70% | 80% | 90% | 90% | 100% | 70%
Cc1c(Cc2ccccc2NS(=O)(=O)C(F)(F)F)c(=O)on1CCC(C)(C)C [Compound 1-116] | 40% | 60% | 80% | 50% | 90% | 90% | 60% | 80% | 90% | 80% | 90% | 50% | 90% | 90% | 90% | 80%
Cc1c(Cc2cc(F)ccc2NS(=O)(=O)C(F)(F)F)c(=O)on1CC(C)C [Compound 1-28] | 50% | 80% | 90% | 40% | 100% | 90% | 80% | 100% | 80% | 100% | 90% | 100% | 100% | 90% | 90% | 100%
Cc1c(Cc2ccccc2NS(=O)(=O)C(F)(F)F)c(=O)on1CCC(C)C [Compound 1-115] | 40% | 40% | 60% | 40% | 90% | 90% | 80% | 80% | 90% | 100% | 90% | 100% | 100% | 90% | 90% | 90%
Cc1c(Cc2ccccc2N(C(=O)Oc2ccccc2)S(=O)(=O)C(F)(F)F)c(=O)on1C(C)c1ccccc1 (stereo not shown) [Compound 1-766] | 90% | 40% | 90% | 40% | 90% | 90% | 90% | 90% | 90% | 90% | 90% | 90% | 90% | 90% | 90% | 90%
